The results in this text go back to US20260062412A1, “NITROGEN-CONTAINING HETEROCYCLIC COMPOUND HAVING MYT1 INHIBITORY ACTIVITY” (CHUGAI SEIYAKU KABUSHIKI KAISHA, priority 2023, published 2026).

Where only a bound is given, the exact number is not on record here.

The target in this assay is MYT1 protein (Homo sapiens (Human), UniProt Q99640). Put plainly: Test for binding to ATP binding site of MYT1 (Kinase Tracer 178 / Eu-Anti-GST antibody TR-FRET). Particulars: ATP binding site of MYT1, 30 minutes at room temperature.
Sequence of MYT1 protein (Q99640 whole entry): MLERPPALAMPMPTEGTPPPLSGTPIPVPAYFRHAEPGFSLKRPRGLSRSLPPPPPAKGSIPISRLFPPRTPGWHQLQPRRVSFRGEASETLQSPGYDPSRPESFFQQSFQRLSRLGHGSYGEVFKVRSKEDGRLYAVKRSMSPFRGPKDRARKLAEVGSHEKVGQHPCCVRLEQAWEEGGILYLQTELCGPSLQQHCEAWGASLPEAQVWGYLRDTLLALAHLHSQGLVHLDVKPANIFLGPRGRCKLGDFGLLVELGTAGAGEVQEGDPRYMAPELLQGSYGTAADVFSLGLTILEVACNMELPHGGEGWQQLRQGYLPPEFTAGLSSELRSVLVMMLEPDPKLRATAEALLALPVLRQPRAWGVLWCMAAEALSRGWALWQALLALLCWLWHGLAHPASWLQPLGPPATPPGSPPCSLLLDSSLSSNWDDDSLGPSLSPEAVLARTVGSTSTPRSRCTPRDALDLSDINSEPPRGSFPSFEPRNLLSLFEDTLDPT

`Nc1c(-c2ccc(F)c3[nH]ncc23)c2cc(OC3CC(C(F)F)C3)c3ncccc3c2[nH]c1=O` (stereo not shown) [Compound C58, 3-Amino-6-[3-(difluoromethyl)cyclobutyl]oxy-4-(7-fluoro-1H-indazol-4-yl)-1H-1,7-phenanthrolin-2-one] showed an IC50 of 1.5 nM.
To `CC(C)(COc1cc2c(-c3ccc(F)c4[nH]ncc34)c(N)c(=O)[nH]c2c2cccnc12)C(F)(F)F` [Compound C59, 3-Amino-4-(7-fluoro-1H-indazol-4-yl)-6-(3,3,3-trifluoro-2,2-dimethylpropoxy)-1H-1,7-one] belongs 5.3 nM; to `CCCOc1cc2c(-c3ccc(F)c4[nH]ncc34)c(N)c(=O)[nH]c2c2cccnc12` [Compound C60, 3-Amino-4-(7-fluoro-1H-indazol-4-yl)-6-propoxy-1H-1,7-phenanthrolin-2-one], 0.85 nM.
To `C[C@@H](F)COc1cc2c(-c3ccc(F)c4[nH]ncc34)c(N)c(=O)[nH]c2c2cccnc12` [Compound C61, (R)-3-amino-4-(7-fluoro-1H-indazol-4-yl)-6-(2-fluoropropoxy)-1,7-phenanthrolin-2(1H)-one] belongs 1.7 nM; to `N#CCOc1cc2c(-c3ccc(F)c4[nH]ncc34)c(N)c(=O)[nH]c2c2cccnc12` [Compound C62, 2-[[3-Amino-4-(7-fluoro-1H-indazol-4-yl)-2-oxo-1H-1,7-phenanthrolin-6-yl]oxy]acetonitrile], 1.6 nM.
For `Nc1c(-c2ccc(F)c3[nH]ncc23)c2cc(SC(F)F)c3ncccc3c2[nH]c1=O` [Compound C63, 3-Amino-6-(difluoromethylsulfanyl)-4-(7-fluoro-1H-indazol-4-yl)-1H-1,7-phenanthrolin-2-one], the IC50 was determined as 1.1 nM.
The compound `Nc1c(-c2cc(F)c(F)c3[nH]ncc23)c2cc(Br)c3ncccc3c2[nH]c1=O` [Compound C66, 3-Amino-6-bromo-4-(6,7-difluoro-1H-indazol-4-yl)-1H-1,7-phenanthrolin-2-one] gave an IC50 of 4.9 nM. This IC50 lies about 4.5-fold higher than the previous one.
Next, `Nc1c(-c2cc(F)c(F)c3[nH]ncc23)c2cc(OCC(F)F)c3ncccc3c2[nH]c1=O` [Compound C68, 3-Amino-6-(2,2-difluoroethoxy)-4-(6,7-difluoro-1H-indazol-4-yl)-1H-1,7-phenanthrolin-2-one]: 1.4 nM.
Next, `Nc1c(-c2cc(F)c(F)c3[nH]ncc23)c2cc(OCC3CC3)c3ncccc3c2[nH]c1=O` [Compound C70, 3-Amino-6-(cyclopropylmethoxy)-4-(6,7-difluoro-1H-indazol-4-yl)-1H-1,7-phenanthrolin-2-one]: 1.1 nM; `Nc1c(-c2cc(F)c(F)c3[nH]ncc23)c2cc(OCC3(F)CC3)c3ncccc3c2[nH]c1=O` [Compound C71, 3-Amino-4-(6,7-difluoro-1H-indazol-4-yl)-6-[(1-fluorocyclopropyl)methoxy]-1H-1,7-one]: 1.7 nM; `Nc1c(-c2cc(F)c(F)c3[nH]ncc23)c2cc(OC(F)(F)F)c3ncccc3c2[nH]c1=O` [Compound C72, 3-Amino-4-(6,7-difluoro-1H-indazol-4-yl)-6-(trifluoromethoxy)-1H-1,7-phenanthrolin-2-one]: 6.2 nM.
For `Nc1c(-c2ccc(Cl)c3[nH]ncc23)c2cc(Br)c3ncccc3c2[nH]c1=O` [Compound C73, 3-Amino-6-bromo-4-(7-chloro-1H-indazol-4-yl)-1H-1,7-phenanthrolin-2-one], the IC50 is less than 14 nM.
For the compound `COc1cc2c(-c3ccc(Cl)c4[nH]ncc34)c(N)c(=O)[nH]c2c2cccnc12` [Compound C74, 3-Amino-4-(7-chloro-1H-indazol-4-yl)-6-methoxy-1H-1,7-phenanthrolin-2-one], the IC50 worked out at 0.83 nM.
To `Nc1c(-c2cc(F)c(Cl)c3[nH]ncc23)c2cc(Br)c3ncccc3c2[nH]c1=O` [Compound C75, 3-Amino-6-bromo-4-(7-chloro-6-fluoro-1H-indazol-4-yl)-1H-1,7-phenanthrolin-2-one] belongs 1.9 nM; to `Nc1c(-c2ccc(Cl)c3[nH]ncc23)c2cc(Cl)c3ncccc3c2[nH]c1=O` [Compound C77, 3-Amino-6-chloro-4-(7-chloro-1H-indazol-4-yl)-1H-1,7-phenanthrolin-2-one], 8.5 nM.
`Nc1c(-c2cncc3[nH]ncc23)c2cc(Br)c3ncccc3c2[nH]c1=O` [Compound C80, 3-Amino-6-bromo-4-(1H-pyrazolo[3,4-c]pyridin-4-yl)-1H-1,7-phenanthrolin-2-one]: the IC50 amounted to 100 nM. This IC50 lies about 12-fold higher than the previous one.
Compound `Nc1c(-c2ccnc3[nH]ncc23)c2cc(Br)c3ncccc3c2[nH]c1=O` [Compound C81, 3-Amino-6-bromo-4-(1H-pyrazolo[3,4-b]pyridin-4-yl)-1H-1,7-phenanthrolin-2-one] yielded an IC50 of 49 nM.
Next, `Nc1c(-c2ccnc3[nH]ncc23)c2cc(C3CC3)c3ncccc3c2[nH]c1=O` [Compound C82, 3-Amino-6-cyclopropyl-4-(1H-pyrazolo[3,4-b]pyridin-4-yl)-1H-1,7-phenanthrolin-2-one]: 11 nM.
`N#Cc1cc2c(-c3ccc(F)c4[nH]ncc34)c(N)c(=O)[nH]c2c2cccnc12` [Compound C87, 3-Amino-4-(7-fluoro-1H-indazol-4-yl)-2-oxo-1H-1,7-phenanthroline-6-carbonitrile] had an IC50 of 18 nM.
`C=Cc1cc2c(-c3ccc(F)c4[nH]ncc34)c(N)c(=O)[nH]c2c2cccnc12` [Compound C89, 3-Amino-6-ethenyl-4-(7-fluoro-1H-indazol-4-yl)-1H-1,7-phenanthrolin-2-one] showed an IC50 of 3.9 nM.
To `CN(C)C(=O)Cc1cc2c(-c3ccc(F)c4[nH]ncc34)c(N)c(=O)[nH]c2c2cccnc12` [Compound C93, 2-[3-Amino-4-(7-fluoro-1H-indazol-4-yl)-2-oxo-1H-1,7-phenanthrolin-6-yl]-N,N-dimethylacetamide] belongs 32 nM.
To `Nc1c(-c2ccc(F)c3[nH]ncc23)c2cc(C3=COCC3)c3ncccc3c2[nH]c1=O` [Compound C94, 3-Amino-6-(2,3-dihydrofuran-4-yl)-4-(7-fluoro-1H-indazol-4-yl)-1H-1,7-phenanthrolin-2-one] belongs 8.4 nM; to `N#CC1(c2cc3c(-c4ccc(F)c5[nH]ncc45)c(N)c(=O)[nH]c3c3cccnc23)CC1` [Compound C95, 1-[3-Amino-4-(7-fluoro-1H-indazol-4-yl)-2-oxo-1H-1,7-phenanthrolin-6-yl]cyclopropane-1-carbonitrile], 8.7 nM.
To `Nc1c(-c2ccc(F)c3[nH]ncc23)c2cc(C3CCCO3)c3ncccc3c2[nH]c1=O` (stereo not shown) [Compound C96, 3-Amino-4-(7-fluoro-1H-indazol-4-yl)-6-(oxolan-2-yl)-1H-1,7-phenanthrolin-2-one] belongs 5.3 nM; to `CC(C)(C)OC(=O)N1CC(c2cc3c(-c4ccc(F)c5[nH]ncc45)c(N)c(=O)[nH]c3c3cccnc23)C1` [Compound C97, tert-Butyl 3-[3-amino-4-(7-fluoro-1H-indazol-4-yl)-2-oxo-1H-1,7-phenanthrolin-6-yl]azetidine-1-carboxylate], 22 nM; to `CC(C)(C)OC(=O)N1CCC(c2cc3c(-c4ccc(F)c5[nH]ncc45)c(N)c(=O)[nH]c3c3cccnc23)CC1` [Compound C99, tert-Butyl 4-[3-amino-4-(7-fluoro-1H-indazol-4-yl)-2-oxo-1H-1,7-phenanthrolin-6-yl]piperidine-1-carboxylate], 21 nM.
Consider `C=C(C)c1cc2c(-c3ccc(F)c4[nH]ncc34)c(N)c(=O)[nH]c2c2cccnc12` [Compound C103, 3-Amino-4-(7-fluoro-1H-indazol-4-yl)-6-prop-1-en-2-yl-1H-1,7-phenanthrolin-2-one], for which the IC50 turned out to be 4.3 nM.
Next, `CC(C)c1cc2c(-c3ccc(F)c4[nH]ncc34)c(N)c(=O)[nH]c2c2cccnc12` [Compound C104, 3-Amino-4-(7-fluoro-1H-indazol-4-yl)-6-propan-2-yl-1H-1,7-phenanthrolin-2-one]: 3.4 nM; `CC(C)Cc1cc2c(-c3ccc(F)c4[nH]ncc34)c(N)c(=O)[nH]c2c2cccnc12` [Compound C105, 3-Amino-4-(7-fluoro-1H-indazol-4-yl)-6-(2-methylpropyl)-1H-1,7-phenanthrolin-2-one]: 5 nM.
Take `CCCc1cc2c(-c3ccc(F)c4[nH]ncc34)c(N)c(=O)[nH]c2c2cccnc12` [Compound C106, 3-Amino-4-(7-fluoro-1H-indazol-4-yl)-6-propyl-1H-1,7-phenanthrolin-2-one]: the IC50 turned out to be 2.7 nM.
`CC(C)CCc1cc2c(-c3ccc(F)c4[nH]ncc34)c(N)c(=O)[nH]c2c2cccnc12` [Compound C107, 3-Amino-4-(7-fluoro-1H-indazol-4-yl)-6-(3-methylbutyl)-1H-1,7-phenanthrolin-2-one]: the half-inhibitory concentration (IC50) worked out at 8.1 nM.
Regarding `CCC(CC)c1cc2c(-c3ccc(F)c4[nH]ncc34)c(N)c(=O)[nH]c2c2cccnc12` [Compound C108, 3-Amino-4-(7-fluoro-1H-indazol-4-yl)-6-pentan-3-yl-1H-1,7-phenanthrolin-2-one], the IC50 is 37 nM.
To `CCC(C)c1cc2c(-c3ccc(F)c4[nH]ncc34)c(N)c(=O)[nH]c2c2cccnc12` (stereo not shown) [Compound C109, 3-Amino-6-butan-2-yl-4-(7-fluoro-1H-indazol-4-yl)-1H-1,7-phenanthrolin-2-one] belongs 4.6 nM; to `CP(C)(=O)c1cc2c(-c3ccc(F)c4[nH]ncc34)c(N)c(=O)[nH]c2c2cccnc12` [Compound C110, 3-Amino-6-dimethylphosphoryl-4-(7-fluoro-1H-indazol-4-yl)-1H-1,7-phenanthrolin-2-one], 14 nM.
Next, `Nc1c(-c2ccc(F)c3[nH]ncc23)c2cc(I)c3ncccc3c2[nH]c1=O` [Compound C111, 3-Amino-4-(7-fluoro-1H-indazol-4-yl)-6-iodo-1H-1,7-phenanthrolin-2-one]: 4.9 nM; `Nc1c(-c2ccc(F)c3[nH]ncc23)c2cc(N3CCCC3=O)c3ncccc3c2[nH]c1=O` [Compound C112, 3-Amino-4-(7-fluoro-1H-indazol-4-yl)-6-(2-oxopyrrolidin-1-yl)-1H-1,7-phenanthrolin-2-one]: 78 nM.
In the case of `Nc1c(-c2ccc(F)c3[nH]ncc23)c2cc(N3CCCC3)c3ncccc3c2[nH]c1=O` [Compound C113, 3-Amino-4-(7-fluoro-1H-indazol-4-yl)-6-pyrrolidin-1-yl-1H-1,7-phenanthrolin-2-one], the IC50 came to 4.6 nM. Against the preceding compound, the IC50 is about 17-fold lower.
